In patent US9416129B2, “Tricyclic substituted thiadiazine dioxide compounds as BACE inhibitors, compositions and their use” (Merck Sharp & Dohme Corp., priority 2012, dated 2016):

Assays:
[1] = biological target: soluble human BACE1 catalytic domain (Homo sapiens (Human), UniProt P56817); experiment: BACE1 HTRF FRET assay; assay type: biochemical; conditions: Ki calculated from IC50 using the Cheng-Prusoff equation
From the text: Na^+-Acetate pH 5.0; 1% Brij-35; Glycerol; Dimethyl Sulfoxide (DMSO); Recombinant human soluble BACE1 catalytic domain (>95% pure); APP Swedish mutant peptide substrate (QSY7-APP^swe-Eu): QSY7-[…]-Europium-amide.
A homogeneous time-resolved FRET assay can be used to determine IC50 values for inhibitors of the soluble human BACE1 catalytic domain. This assay monitors the increase of 620 nm fluorescence that resulted from BACE1 cleavage of an APPswedish APP^swe mutant peptide FRET substrate (QSY7-[…]-Europium-amide). This substrate contains an N-terminal QSY7 moiety that serves as a quencher of the C-terminal Europium fluorophore (620 nm Em). In the absence of enzyme activity, 620 nm fluorescence is low in the assay and increased linearly over 3 hours in the presence of uninhibited BACE1 enzyme Inhibition of BACE1 cleavage of the QSY7-APP^swe-Eu substrate by inhibitors is manifested as a suppression of 620 nm fluorescence.
Varying concentrations of inhibitors at 3× the final desired concentration in a volume of 10 ul are preincubated with purified human BACE1 catalytic domain (3 nM in 10 μl) for 30 minutes at 30° C. in reaction buffer containing 20 mM Na-Acetate pH 5.0, 10% glycerol, 0.1% Brij-35 and 7.5% DSMO. Reactions are initiated by addition of 10 μl of 600 nM QSY7-APP^swe-Eu substrate (200 nM final) to give a final reaction volume of […] in a 384 well Nunc HTRF plate. The reactions are incubated at 30° C. for 1.5 hours. The 620 nm fluorescence is then read on a Rubystar HTRF plate reader (BMG Labtechnologies) using a 50 millisecond delay followed by a 400 millisecond acquisition time window. Inhibitor IC50 values are derived from non-linear regression analysis of concentration response curves.

[2] = biological target: human autoBACE-2 (Homo sapiens (Human), UniProt Q9Y5Z0); experiment: BACE-2 assay (BACE-HTRF, time-resolved endpoint proteolysis); assay type: biochemical; conditions: Ki calculated from IC50 using the Cheng-Prusoff equation; read-out: BACE2 Ki
Protocol: Inhibitor IC50s at purified human autoBACE-2 are determined in a time-resolved endpoint proteolysis assay that measures hydrolysis of the QSY7-[…]-Eu-amide FRET peptide substrate (BACE-HTRF assay). […] DMSO is present at 5% final concentration in the assay. Following laser excitation of sample wells at 320 nm, the fluorescence signal at 620 nm is collected for 400 ms following a 50 μs delay on a RUBYstar HTRF plate reader (BMG Labtechnologies). Raw RFU data is normalized to maximum (1.0 nM BACE/DMSO) and minimum (no enzyme/DMSO) RFU values. […] The Ki values are calculated from the IC50 using the Cheng-Prusoff equation.

[3] = biological target: human P-glycoprotein (Homo sapiens (Human), UniProt P08183); experiment: Pgp Mdr1 efflux ratio; assay type: in vitro ADME; conditions: efflux ratio, human P-glycoprotein
Sequence of human P-glycoprotein (P08183 whole entry): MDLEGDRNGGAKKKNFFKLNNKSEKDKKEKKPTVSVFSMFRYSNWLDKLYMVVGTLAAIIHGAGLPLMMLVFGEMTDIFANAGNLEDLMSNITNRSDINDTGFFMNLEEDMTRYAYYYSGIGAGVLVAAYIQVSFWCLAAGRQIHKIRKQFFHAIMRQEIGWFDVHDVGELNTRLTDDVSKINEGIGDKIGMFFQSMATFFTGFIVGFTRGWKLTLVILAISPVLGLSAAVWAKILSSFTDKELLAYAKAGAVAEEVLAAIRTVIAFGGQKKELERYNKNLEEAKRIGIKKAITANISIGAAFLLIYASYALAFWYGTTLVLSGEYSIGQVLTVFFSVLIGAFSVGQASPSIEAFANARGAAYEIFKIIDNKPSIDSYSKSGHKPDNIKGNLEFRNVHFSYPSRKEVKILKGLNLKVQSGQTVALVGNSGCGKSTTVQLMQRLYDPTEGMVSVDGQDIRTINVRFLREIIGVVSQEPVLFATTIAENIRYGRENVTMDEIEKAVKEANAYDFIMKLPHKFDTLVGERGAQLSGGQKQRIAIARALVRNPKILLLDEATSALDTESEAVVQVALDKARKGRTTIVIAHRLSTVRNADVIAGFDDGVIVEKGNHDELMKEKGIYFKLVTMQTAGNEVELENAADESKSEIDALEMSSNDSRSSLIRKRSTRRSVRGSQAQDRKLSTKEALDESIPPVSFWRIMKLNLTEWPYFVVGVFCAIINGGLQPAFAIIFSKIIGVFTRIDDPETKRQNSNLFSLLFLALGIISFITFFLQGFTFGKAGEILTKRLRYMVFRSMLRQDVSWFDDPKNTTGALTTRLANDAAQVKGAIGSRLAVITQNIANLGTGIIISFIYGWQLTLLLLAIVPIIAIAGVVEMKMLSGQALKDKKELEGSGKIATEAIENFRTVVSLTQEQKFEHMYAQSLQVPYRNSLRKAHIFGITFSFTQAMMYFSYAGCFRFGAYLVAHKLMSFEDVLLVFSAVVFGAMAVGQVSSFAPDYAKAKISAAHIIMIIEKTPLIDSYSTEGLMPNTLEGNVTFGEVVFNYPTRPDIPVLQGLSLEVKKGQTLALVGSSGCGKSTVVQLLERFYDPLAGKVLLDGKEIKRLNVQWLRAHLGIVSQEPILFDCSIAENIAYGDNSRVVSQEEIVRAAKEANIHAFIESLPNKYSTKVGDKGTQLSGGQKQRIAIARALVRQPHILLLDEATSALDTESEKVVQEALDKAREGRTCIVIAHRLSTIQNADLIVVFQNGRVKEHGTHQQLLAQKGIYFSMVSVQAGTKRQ

Sequence of soluble human BACE1 catalytic domain (P56817 75-416): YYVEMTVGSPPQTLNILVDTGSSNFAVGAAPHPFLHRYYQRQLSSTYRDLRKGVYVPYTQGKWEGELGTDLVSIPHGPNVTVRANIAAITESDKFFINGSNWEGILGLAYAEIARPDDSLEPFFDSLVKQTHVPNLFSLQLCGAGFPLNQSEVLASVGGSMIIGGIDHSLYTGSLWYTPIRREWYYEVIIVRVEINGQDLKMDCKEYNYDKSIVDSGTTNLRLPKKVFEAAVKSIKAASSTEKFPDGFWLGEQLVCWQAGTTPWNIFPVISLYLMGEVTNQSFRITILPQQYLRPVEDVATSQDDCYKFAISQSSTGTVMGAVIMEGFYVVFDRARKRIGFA
Sequence of human autoBACE-2 (Q9Y5Z0 63-473 limits assumed): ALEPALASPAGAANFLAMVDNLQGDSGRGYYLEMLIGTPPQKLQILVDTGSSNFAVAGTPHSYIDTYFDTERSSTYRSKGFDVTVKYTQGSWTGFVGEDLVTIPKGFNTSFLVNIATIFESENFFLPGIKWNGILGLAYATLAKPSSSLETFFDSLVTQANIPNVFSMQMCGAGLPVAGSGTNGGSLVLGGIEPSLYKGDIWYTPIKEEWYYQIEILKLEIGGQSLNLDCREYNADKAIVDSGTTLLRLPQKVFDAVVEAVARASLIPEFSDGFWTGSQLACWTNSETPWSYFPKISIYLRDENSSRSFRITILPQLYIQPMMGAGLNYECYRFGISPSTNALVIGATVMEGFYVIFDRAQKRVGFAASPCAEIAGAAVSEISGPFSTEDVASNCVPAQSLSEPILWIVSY

Structure (SMILES) | Ki [1] | Ki [2] | Pgp Mdr1 ER [3]
CN1C(=N)N[C@](C)(c2sc(-c3cccc(-c4ncco4)c3)cc2Cl)CS1(=O)=O [Example 6] | 4.7 nM | 1.4 nM | 0.49
CN1C(=N)N[C@](C)(c2sc(-c3ccc(-n4ccnn4)cc3)cc2Cl)CS1(=O)=O [Example 71] | 1600 nM | 654 nM | –
Cc1cn(-c2cc(-c3cc(F)c([C@]4(C)CS(=O)(=O)N(C)C(=N)N4)s3)ccn2)cn1 [Example 72] | 67.2 nM | 26 nM | –
CN1C(=N)N[C@](C)(c2sc(-c3ccnc(-c4ccncc4)c3)cc2F)CS1(=O)=O [Example 73] | 338 nM | 123 nM | –
CN1C(=N)N[C@](C)(c2sc(-c3ccnc(-c4cccnc4)c3)cc2F)CS1(=O)=O [Example 74] | 199 nM | 122 nM | –
Cc1cnn(-c2cc(-c3cc(F)c([C@]4(C)CS(=O)(=O)N(C)C(=N)N4)s3)ccn2)c1 [Example 75] | 2780 nM | 2530 nM | –
CN1C(=N)N[C@](C)(c2sc(-c3ccnc(-n4ccnc4)c3)cc2F)CS1(=O)=O [Example 76] | 112 nM | 52 nM | –
CN1C(=N)N[C@](C)(c2sc(-c3ccnc(-n4cccn4)c3)cc2F)CS1(=O)=O [Example 77] | 162 nM | 69 nM | –
CN1C(=N)N[C@](C)(c2sc3c(-c4cnc(C5CC5)nc4)nccc3c2Cl)CS1(=O)=O [Example 78] | 162 nM | 23 nM | –
CN1C(=N)N[C@](C)(c2sc3c(-c4ccc(C5CC5)nc4)nccc3c2Cl)CS1(=O)=O [Example 79] | 282 nM | 22 nM | –
CN1C(=N)N[C@](C)(c2sc3c(-c4ccc(C5CC(=O)N5)cc4)cccc3c2F)CS1(=O)=O (some centres unmarked) [Example 81] | 184 nM | 1720 nM | –
CN1C(=N)N[C@](C)(c2sc3c(-c4ccc(-c5ccc(F)cc5F)nc4)cccc3c2F)CS1(=O)=O [Example 82] | 93 nM | 61 nM | –
CN1C(=N)N[C@](C)(c2sc3c(-c4ccc(-n5ccnn5)cc4)cccc3c2F)CS1(=O)=O [Example 83] | 19 nM | 148 nM | –
CN1C(=N)N[C@](C)(c2sc3c(-c4ccc(-c5ccncc5)cc4)cccc3c2F)CS1(=O)=O [Example 84] | 351 nM | 764 nM | –
CN1C(=N)N[C@](C)(c2sc3c(-c4ccc(N5CCS(=O)(=O)CC5)cc4)cccc3c2F)CS1(=O)=O [Example 85] | 6520 nM | 4690 nM | –
CN1C(=N)N[C@](C)(c2sc3c(-c4ccc(-c5nccn5C)cc4)cccc3c2F)CS1(=O)=O [Example 86] | 5620 nM | 3300 nM | –
CN1C(=N)N[C@](C)(c2sc3c(-c4ccc(-n5cccn5)nc4)cccc3c2F)CS1(=O)=O [Example 87] | 10 nM | 31 nM | –
Cc1cnc(-c2ccc(-c3cccc4c(F)c([C@]5(C)CS(=O)(=O)N(C)C(=N)N5)sc34)cc2)nc1 [Example 88] | 9140 nM | 3840 nM | –
CN1C(=N)N[C@](C)(c2sc3c(-c4ccc(-n5cccn5)cc4)cccc3c2F)CS1(=O)=O [Example 89] | 37 nM | 68 nM | –
CN1C(=N)N[C@](C)(c2sc3c(-c4ccc(-c5ncco5)cc4)cccc3c2F)CS1(=O)=O [Example 90] | 104 nM | 214 nM | –
CN1C(=N)N[C@](C)(c2sc3c(-c4ccc(-c5nccs5)cc4)cccc3c2F)CS1(=O)=O [Example 91] | 797 nM | 1350 nM | –
CN1C(=N)N[C@](C)(c2sc3c(-c4ccc(-n5nccn5)cc4)cccc3c2F)CS1(=O)=O [Example 92] | 1660 nM | 1660 nM | –
CN1CCN(c2ccc(-c3cccc4c(F)c([C@]5(C)CS(=O)(=O)N(C)C(=N)N5)sc34)cn2)CC1 [Example 93] | 3840 nM | 2660 nM | –
CN1C(=N)N[C@](C)(c2sc3c(-c4ccc(N5CCOCC5)nc4)cccc3c2F)CS1(=O)=O [Example 94] | 1500 nM | 9520 nM | –
CN1CCN(c2ccc(-c3cccc4c(F)c([C@]5(C)CS(=O)(=O)N(C)C(=N)N5)sc34)cc2)CC1 [Example 95] | 9760 nM | 2030 nM | –

Structure (SMILES) | Ki [1] | Ki [2] | Pgp Mdr1 ER [3]
CN1C(=N)N[C@](C)(c2sc3c(-c4ccc(C5CC5)nc4)cccc3c2F)CS1(=O)=O [Example 96] | 327 nM | 9520 nM | –
CN1C(=N)N[C@](C)(c2sc3c(-c4cnc(-n5cccn5)nc4)nccc3c2Cl)CS1(=O)=O [Example 97] | 61.2 nM | 64 nM | –
CN1C(=N)N[C@](C)(c2sc3c(-c4ccc(-c5cc(C(F)(F)F)n[nH]5)cc4)nccc3c2Cl)CS1(=O)=O [Example 98] | 425 nM | 6.7 nM | –
CN1C(=N)N[C@](C)(c2sc3c(-c4ccc(-n5nccn5)cc4)nccc3c2Cl)CS1(=O)=O [Example 99] | 224 nM | 855 nM | –
CN1C(=N)N[C@](C)(c2sc3c(-c4ccc(-c5ncco5)cc4)nccc3c2Cl)CS1(=O)=O [Example 100] | 116 nM | 224 nM | –
CN1C(=N)N[C@](C)(c2sc3c(-c4ccc(C5CC(=O)N5)cc4)nccc3c2Cl)CS1(=O)=O (some centres unmarked) [Example 101] | 959 nM | 116 nM | –
CN1C(=N)N[C@](C)(c2sc3c(-c4ccc(-n5cccn5)cc4)nccc3c2Cl)CS1(=O)=O [Example 102] | 29.9 nM | 959 nM | –
CN1C(=N)N[C@](C)(c2sc3c(-c4ccc(-n5ccnn5)cc4)nccc3c2Cl)CS1(=O)=O [Example 104] | 86.1 nM | 36 nM | –
CN1C(=N)N[C@](C)(c2sc3c(-c4ccc(-c5nccn5C)cc4)nccc3c2Cl)CS1(=O)=O [Example 105] | 1640 nM | 86 nM | –
CN1C(=N)N[C@](C)(c2sc3c(-c4ccc(-c5nccs5)cc4)nccc3c2Cl)CS1(=O)=O [Example 106] | 270 nM | 1640 nM | –
CN1C(=N)N[C@](C)(c2sc3c(-c4ccc(-c5ccoc5)cc4F)nccc3c2Cl)CS1(=O)=O [Example 107] | 19.7 nM | 270 nM | –
CN1C(=N)N[C@](C)(c2sc3c(-c4ccc(-c5cnco5)cc4F)nccc3c2Cl)CS1(=O)=O [Example 108] | 35.2 nM | 19 nM | –
Cc1occc1-c1ccc(-c2nccc3c(Cl)c([C@]4(C)CS(=O)(=O)N(C)C(=N)N4)sc23)c(F)c1 [Example 109] | 525 nM | 87 nM | –
Cc1cocc1-c1ccc(-c2nccc3c(Cl)c([C@]4(C)CS(=O)(=O)N(C)C(=N)N4)sc23)c(F)c1 [Example 110] | 112 nM | 444 nM | –
CN1C(=N)N[C@](C)(c2sc3c(-c4ccc(-c5ccnn5C)cc4F)nccc3c2Cl)CS1(=O)=O [Example 111] | 197 nM | 27 nM | –
CN1C(=N)N[C@](C)(c2sc3c(-c4ccc(-c5cnn(C)c5)cc4F)nccc3c2Cl)CS1(=O)=O [Example 112] | 291 nM | 218 nM | –
CN1C(=N)N[C@](C)(c2sc3c(-c4ccc(-c5cncs5)cc4F)nccc3c2Cl)CS1(=O)=O [Example 113] | 105 nM | 252 nM | –
CN1C(=N)N[C@](C)(c2sc3c(-c4ccc(-c5cn[nH]c5)cc4F)nccc3c2Cl)CS1(=O)=O [Example 114] | 330 nM | 134 nM | –
COc1cnn(-c2ccc(-c3nccc4c(Cl)c([C@]5(C)CS(=O)(=O)N(C)C(=N)N5)sc34)c(F)c2)c1 [Example 115] | 17.7 nM | 267 nM | –
CN1C(=N)N[C@](C)(c2sc3c(-c4ccc(-n5cccn5)cc4F)nccc3c2Cl)CS1(=O)=O [Example 116] | 31.4 nM | 110 nM | –
CCCc1cnn(-c2ccc(-c3nccc4c(Cl)c([C@]5(C)CS(=O)(=O)N(C)C(=N)N5)sc34)c(F)c2)c1 [Example 117] | 259 nM | 35 nM | –
CCc1cnn(-c2ccc(-c3nccc4c(Cl)c([C@]5(C)CS(=O)(=O)N(C)C(=N)N5)sc34)c(F)c2)c1 [Example 118] | 229 nM | 702 nM | –
Cc1cnn(-c2ccc(-c3nccc4c(Cl)c([C@]5(C)CS(=O)(=O)N(C)C(=N)N5)sc34)c(F)c2)c1 [Example 119] | 189 nM | 417 nM | –
COc1ccnc(N2CCN(c3nccc4c(Cl)c([C@]5(C)CS(=O)(=O)N(C)C(=N)N5)sc34)CC2)c1 [Example 121] | 1860 nM | 1260 nM | –
Cc1nsc(C2CCN(c3nccc4c(Cl)c([C@]5(C)CS(=O)(=O)N(C)C(=N)N5)sc34)CC2)n1 [Example 122] | 885 nM | 408 nM | –
